According to the NIST ThermoML archive (doi:10.1021/acs.jced.7b00995):
± gives the expanded uncertainty stated by the source.

Assays:
[1] = 313.15 K, Liquid, Vibrating tube method
[2] = xn = mol fraction of the nth substance listed; settings: Liquid, Vibrating tube method

CCCCCCCCCCCCCCC [pentadecane]
[1]
Settings | mass density [kg/m3]
100 kPa | 752.2 ± 2.3
6910 kPa | 757.8 ± 2.3
20790 kPa | 766.9 ± 2.4
34670 kPa | 776.1 ± 2.4
55490 kPa | 787.5 ± 2.5
76930 kPa | 797.3 ± 2.5

CCCCCCCCCCCCCCC [pentadecane] + O=C=O
mass density [kg/m3], [2]
Settings | x2 = 0.376 | x2 = 0.562 | x2 = 0.757
313.15 K, 6.36 kPa | – | 779.4 ± 2.4 | –
313.15 K, 6.91 kPa | 770 ± 2.4 | – | –
313.15 K, 8.8 kPa | – | – | 798.3 ± 2.5
313.15 K, 11.29 kPa | – | – | 804.2 ± 2.5
313.15 K, 13.85 kPa | – | – | 810.2 ± 2.6
313.15 K, 20.79 kPa | 784 ± 2.4 | 796.8 ± 2.5 | 828.1 ± 2.8
313.15 K, 34.67 kPa | 795.8 ± 2.7 | 808.8 ± 2.5 | 843.2 ± 3
313.15 K, 55.49 kPa | 809 ± 2.7 | 829 ± 2.5 | 867.8 ± 3.1
313.15 K, 76.31 kPa | 825.4 ± 2.8 | 841.5 ± 2.6 | 885.9 ± 2.8
363.15 K, 6.94 kPa | 725.3 ± 2.2 | – | –
363.15 K, 10.73 kPa | – | 730.3 ± 2.2 | –
363.15 K, 17.13 kPa | – | – | 738.8 ± 2.3
363.15 K, 20.82 kPa | 744.5 ± 2.3 | 745.5 ± 2.3 | 749.2 ± 2.3
363.15 K, 34.7 kPa | 754.3 ± 2.3 | 768.8 ± 2.4 | 780 ± 2.4
363.15 K, 55.52 kPa | 775.6 ± 2.4 | 784.7 ± 2.4 | 812.3 ± 2.5
363.15 K, 76.34 kPa | 787 ± 2.4 | 800.8 ± 2.4 | 831.7 ± 2.6
410.15 K, 13.9 kPa | – | 686.5 ± 2.1 | –
410.15 K, 13.91 kPa | 693.8 ± 2.1 | – | –
410.15 K, 20.85 kPa | 702.6 ± 2.2 | 701.8 ± 2.3 | –
410.15 K, 21.95 kPa | – | – | 682.7 ± 2.1
410.15 K, 27.79 kPa | – | – | 702 ± 2.2
410.15 K, 34.73 kPa | 723.3 ± 2.4 | 724.9 ± 2.3 | 723.5 ± 2.3
410.15 K, 55.55 kPa | 742.3 ± 2.4 | 749.5 ± 2.3 | 763.8 ± 2.5
410.15 K, 76.37 kPa | 757.3 ± 2.4 | 769.3 ± 2.4 | 796.1 ± 2.7
